Data set [1] can be described thus: Assay 16 Determination of mouse plasma levels of test compounds. It is filed as in vivo. As to conditions: for Conc. in mouse plasma: oral 30 mg/kg. The text has this:
[formula] [formula] [formula] • CLtotal=total plasma clearance after IV administration • Vdβ=volume of distribution during the elimination phase after IV administration • BA=oral bioavailability • AUCIV=area under the plasma concentration versus time profile from time zero to infinity after IV administration • AUCoral=area under the plasma concentration versus time profile from time zero to infinity after oral administration • β=terminal elimination rate constant after IV administration Assay 16 Determination of Mouse Plasma Levels of Test Compounds PBT 1061
Oral administration of PBT 1061 at 30 mg/kg, as a suspension in Na-Carboxymethyl Cellulose (CMC) was administered by oral gavage to four mice. Two mice were sacrificed 30 minutes after administration and two mice were sacrificed 60 minutes after administration. Blood was obtained by cardiac puncture and plasma separated by centrifugation.
The concentration of PBT1061 was determined by LC/MS using the ZQ instrument. The mobile phase consisted of an acetonitrile (ACN)/water gradient (containing 0.05% Formic acid) and the column was a Phenomenex Polar-RP […] 80A (50×2 mm) column.
The mouse plasma samples were directly injected following a protein precipitation with ACN. The analytical method in plasma was linear in the range of 125 to 10,000 ng/ml (R^2=0.9992). Diazepam was used as the internal standard. Recovery of PBT1061 from plasma was ˜100%.
Oral administration of PBT 1063 at 30 mg/kg, as a suspension in Na-Carboxymethyl Cellulose (CMC) was administered by oral gavage to four mice. Two mice were sacrificed 30 minutes after administration and two mice were sacrificed 60 minutes after administration. Blood was obtained by cardiac puncture and plasma separated by centrifugation.
The concentration of PBT1063 was determined by LC/MS using the single quadrupole instrument. The mobile phase consisted of an acetonitrile (ACN)/water gradient (containing 0.05% Formic acid) and the column was a Phenomenex C8 4 μm 80A (50×2 mm) column.
The supplied acute toxicity mouse plasma samples (delivered Feb. 9, 2003) were directly injected following a protein precipitation with ACN. Concentrations were determined by comparison to a calibration curve prepared in rat plasma. The analytical method in plasma was linear in the range of 312 to 10,000 ng/ml (R^2=0.9976). Diazepam was used as the internal standard. Recovery of PBT1063 from plasma was ˜42.9%.

The subject of data set [2] is Aβ from post mortem human AD brain. The data set can be described thus: Assay 9 Human brain amyloid solubilisation assay. It is filed as biochemical. Further details: key: (+): effective at solubilising plaques at more than 1 concentration relative to PBS; (−): not effective at solubilising plaques relative to PBS. As to conditions: relative to PBS. As for the experimental part:
Assay 9. Human Brain Amyloid Solubilisation Assay
This assay was performed in order to assess the ability of a test compound to mobilise Aβ from the insoluble to the soluble phase of an extract of tissue from post mortem human AD brain.
Up to 0.5 g of plaque-bearing cortex without meninges was homogenized using a DIAX 900 homogenizer (Heudolph and Co, Kelheim, Germany) or other suitable device for three 30-second periods at full speed in up to 2 ml of ice-cold phosphate-buffered saline, pH 7.4. To obtain the phosphate-buffered saline-extractable fraction, the homogenate was centrifuged at 100,000×g for 30 min and the supernatant removed. […]
Tris-Tricine polyacrylamide gel electrophoresis was performed by loading appropriately diluted samples on to 10% to 20% gradient gels (Novex, San Diego, Calif.) followed by transfer on to 0.2-μm nitrocellulose membrane (Bio-Rad, Hercules, Calif.). Aβ was detected by using monoclonal antibody W02, which detects residues 5 through 8, 17 (or another suitable antibody) in conjunction with horseradish peroxidase-conjugated rabbit anti-mouse IgG (Dako, Denmark), and visualized by using enhanced chemiluminescence (eg ECL; Amersham Life Science, Buckinghamshire, UK). […]
All samples were analysed several times, and gel loadings and dilutions were adjusted to fit within the quantifiable region of the standard curve. […]

Values joined by “and” are separate entries in the source; they are usually repeats but may differ in a detail not shown here. Equal entries are not always repeated.

For the compound `O=c1c(-c2ccc(Cl)cc2)cnc2c(O)c(I)ccn12` [PBT-1063, 3-(4-Chlorophenyl)-9-hydroxy-8-iodopyrido[1,2-a]pyrimidin-4-one], the concentration at 30 min in data set [1] (mouse, plasma, po, 30 mg/kg, 30 min, individual mouse (Table 2), read-out: Conc. in mouse plasma) was found to be 413 ng/mL. Further, the concentration at 60 min in data set [1] (mouse, plasma, po, 30 mg/kg, 60 min, individual mouse (Table 2), read-out: Conc. in mouse plasma) amounted to 331 ng/mL. Moreover, the “Conc. in mouse plasma” value in data set [1] (30 min, individual mouse (Table 2)) amounted to 279.39 ng/mL; in data set [1] (60 min, individual mouse (Table 2)), 439.49 ng/mL.
Turning to `O=c1c2c(Cl)cc(Cl)c(O)c2ncn1C1CC1` [PBT-1061, 5,7-Dichloro-3-cyclopropyl-8-hydroxy-3H-quinazolin-4-one], the “Assay 9 Brain amyloid solubilisation” value in data set [2] is “(+)”. The “Conc. in mouse plasma” value in data set [1] (30 min, individual mouse) is 1826.61 ng/mL and 5475.88 ng/mL; in data set [1] (60 min, individual mouse), 2417.55 ng/mL and 1115.24 ng/mL.
`Oc1c(N2CCOCC2)ncc2cccnc12` [PBT-1053, 7-Morpholin-4-yl-[1,6]naphthyridin-8-ol]: the “Assay 9 Brain amyloid solubilisation” value in data set [2] was “(+)”.

Values taken from patent US7692011B2, “8-hydroxy and 8-mercapto quinazolinones” (Prana Biotechnology Limited, priority 2002, dated 2010).
